Assay [1] has as its system Human primary myoblasts (HSMM) from healthy Donor 3, myotubes. Put plainly: MyoScreen hypertrophy assay on human primary myoblasts/myotubes, healthy Donor 3. To be noted: for activity at 10 µM / EC50: Homo sapiens. It counts as cell-based. How it is done: (§1) Healthy donor primary skeletal cells (Donor 1 and Donor 3) were Clonetics™ Human Skeletal Muscle Myoblasts (HSMM).
(§2) Hypertrophy and Atrophy Rescue assays were performed using an in vitro fully automated human myotube model called MyoScreen (Cytoo, France). This model relies on a tight control of the microenvironment that guides the differentiation of human primary myoblasts. Myotubes formed on MyoScreen™ micropatterns present a high level of maturation together with a highly standardized morphology.
(§3) Human primary myoblasts from donors 1, 3 and Z were seeded in MyoScreen™ micropatterned 96-well plates (Cytoo, France), let them adhere for 24 h in growth medium, then run the differentiation in a low horse serum medium for at least 5 days.
(§4) At Day0, MyoScreen™ plates (Cytoo, France) containing micropatterns were pre-filled with 200 μl/well of growth medium and stored in the incubator at 37° C. Human primary myoblasts were detached from the flasks, count, and seeded into the plates with 15 000 cells per well in 100 μl of growth medium.
(§5) At Day 1, the growth medium was changed for a differentiation medium, 300 μl/well (DMEM with 0.1% horse serum) in which myoblasts started differentiating and forming myotubes.
(§6) At Day 2, the differentiation medium was changed. Then candidate compounds were diluted with differentiation medium and transferred into the plate. The final concentration of DMSO should be not higher than 0.1%. At least 6 wells were treated with the vehicle as a basal control, and 6 wells were treated with IGF-1 at 100 ng/ml as positive hypertrophy control.
(§7) At Day 6, cells were fixed with formalin 5% for 30 min at room temperature, then permeabilized with Triton X-100 at 0.1% in PBS for 15 min, and blocked with PBS+BSA 1% for 20 minutes. Myotubes were incubated with first antibody against Troponin T in blocking buffer for 1 h30, washed three times with PBS, incubated with secondary antibody and Hoescht (1/10 000) for 1 h30, and washed three times with PBS.
(§8) Images were acquired at 10× magnification with an Operetta High Content Imaging System. Image processing and analysis were performed with dedicated algorithms developed on the Acapella High Content Imaging Software (Perkin Elmer) by CYTOO. Eleven fields per well were acquired.
(§9) First, segmentation of myotubes and nuclei were done using respectively the Troponin T staining intensity and the Hoechst staining. One to two myotubes per micropattern were usually identified (a myotube is a troponin T staining area that includes at least 2 nuclei). The threshold of segmentation was set-up in order to avoid detecting the background noise and eliminate aberrant small myotube structures. At the end of this first step, specific readouts were calculated in the whole well, like the nuclei count and the fusion index (percentage of nuclei included in troponin T staining). Usually around 50 to 60 myotubes were detected per well in a control condition.
(§10) Then, an image clean-up step was performed on the Troponin T images in order to remove myotubes that touch the border of the image. The final valid myotubes were used to extract myotube morphology parameters including the myotube width and area, and the number of nuclei per myotube.
(§11) Nuclei Count, Fusion Index, Mean myotube Area and Number of nuclei per myotube have been validated as relevant and sensitive readouts of myotube differentiation as well as atrophic and hypertrophic induction.
A primary screening was run to identify hypertrophy compounds that increase the myotube differentiation and size. Candidate compounds were tested at 10 μM in monoplicate on Donor 3 cells.
A retest was run, by cherry picking (same compound batch as primary screening): each hit was tested in the same conditions as in the Primary Screening (Donor 3, 10 μM) in six well replicates.
Dose response assays were performed on three donors (Healthy Donors 3 and 1, DMD Donor Z): 8 doses of candidate compounds between 33 μM and 0.015 μM, 2 well replicates per dose. […]

Assay [2] deals with Human primary myoblasts (HSMM) from healthy Donor 1, myotubes. Put plainly: MyoScreen hypertrophy assay, dose response, healthy Donor 1. Type of assay: cell-based. As to conditions: first dose response assay; for EC50: Homo sapiens, not defined precisely. How it is done:
as §1, §2, §3, §4, §5, §6, §7, §8, §9, §10, §11
(§12) Dose response assays were performed on three donors (Healthy Donors 3 and 1, DMD Donor Z): 8 doses of candidate compounds between 33 μM and 0.015 μM, 2 well replicates per dose.
(§13) Compounds of interest were tested several times in dose response, with triplicate of wells per dose. Results were normalized to the control condition (basal level), and plotted using GraphPadm Prism. The readout “nuclei count” allowed detecting any toxicity effect. The readouts “fusion index” and “myosin area” were used to determine the EC50 value using the GrapgPad Prism fitting solution. […]

For assay [3], the system named is Human primary myoblasts from DMD (Duchenne muscular dystrophy) Donor Z, myotubes. Put plainly: MyoScreen hypertrophy assay, dose response, DMD Donor Z. It counts as cell-based. As to conditions: for activity: additional dose response assay, Donor Z, Mifepristone at 300 nM, IGF-1 positive control; for % Activity / EC50: first dose response assay; for % Activity / DMD myotube size and differentiation / EC50: Donor Z (DMD); for DMD myotube size and differentiation: dose response; for EC50: Homo sapiens, not defined precisely. How it is done: In addition, cells from a DMD (Duchenne muscular dystrophy) donor were sourced (Donor Z) and used to confirm primary hits.
as §2, §3, §4, §5, §6, §7, §8, §9, §10, §11, §12, §13

The subject of assay [4] is Myotubes from the healthy donor 3 atrophied with IL-1β, TNF-α or Myostatin. Put plainly: MyoScreen atrophy rescue assay (IL-1β, TNF-α, myostatin as atrophy inducers). Type of assay: cell-based, human. Also noted: key: +++: total rescue; ++: partial rescue; +: low rescue. As to conditions: nestorone 1 μM, corticosterone 3 μM, mifepristone 1 μM; for atrophy rescue, TNF-alpha: atrophy inducer TNF-α 2 ng/mL; for atrophy rescue, Myostatin: atrophy inducer myostatin 150 ng/mL. The procedure:
as §2, §3, §4, §5, §6
For Atrophy Rescue assay, one hour after candidate compound addition, atrophy inducers were added at the following final concentration: 150 ng/mL of myostatin, 25 ng/mL of […] and 2 ng/mL of TNF-α.
as §7, §8, §9, §10, §11
Atrophy Rescue assays were performed in the presence of atrophy inducers, i.e. TNF-α, IL-1β and Myostatin. Each compound was tested in triplicate of wells at 1 μM for nestorone, 3 μM for corticostestrone and 1 μM for mifepristone.
Myotubes from the healthy donor 3 were atrophied using different inducers: inflammation cytokines IL-1β and TNF-α and SMAD pathway activator Myostatin. The ability of each compound to block the atrophy induced by these different atrophy inducers was determined.

For assay [5] the test system is unchanged. The description is as above. Type of assay: cell-based, human. Also on record: key: +++: total rescue; ++: partial rescue; +: low rescue. To be noted: atrophy inducer IL-1β 25 ng/mL, nestorone 1 μM, corticosterone 3 μM, mifepristone 1 μM.
Setting [6] is: Donor 3, compounds at 10 μM, monoplicate, % Activity = myotube fusion index (compound)*100/fusion index (basal control), IGF-1 at 100 ng/ml, read-out: Primary screening (% Activity).
Where [7] appears, read: Donor 3, compounds at 10 μM, six well replicates, % of basal control fusion index, IGF-1 at 100 ng/ml, read-out: Retest (% Activity).
The mark [8] stands for this setting: first dose response assay, Donor 3, 33 μM to 0.015 μM.
Where [9] appears, read: second dose response assay, Donor 3, lower concentrations.
Where [10] appears, read: first dose response assay, Donor 3, not defined precisely.

Like-named read-outs stand apart in the source and are kept apart here.

For the compound `CC(=O)[C@H]1CC[C@H]2[C@@H]3CCC4=CC(=O)CC[C@]4(C)[C@H]3CC[C@]12C` [Progesterone], the results for the activity at 10 µM in assay [1] (setting [6]) and in assay [1] (setting [7]) were 137% and 114%, respectively.
Take `CC(=O)O[C@]1(C(C)=O)CC[C@H]2[C@@H]3C=C(C)C4=CC(=O)CC[C@]4(C)[C@H]3CC[C@@]21C` [Megestrol acetate]: the activity at 10 µM in assay [1] (setting [6]) was found to be 133%; in assay [1] (setting [7]), 125%.
On to “IGF-1: IGF-1 at 100 ng/ml as positive hypertrophy control”, for which, in assay [1] (Donor 3, compounds at 10 μM, monoplicate, % Activity = myotube fusion index (compound)*100/fusion index (basal control), IGF-1 at 100 ng/ml), the “Primary screening (% Activity)” value was 210%. Besides, the “Retest (% Activity)” value in assay [1] (Donor 3, compounds at 10 μM, six well replicates, % of basal control fusion index, IGF-1 at 100 ng/ml) is 190%. Besides, the “% Activity” value in assay [1] (setting [8]) is listed as 150%; in assay [1] (setting [9]), 150%; in assay [2] it was 150%; in assay [3], 250%. Besides, the activity in assay [3] is on record as 200%. For the same compound, the “atrophy rescue, TNF-alpha” value in assay [4] is listed as “+++”. Moreover, in assay [4], the “atrophy rescue, Myostatin” value is reported as “+++”. Moreover, the “atrophy rescue, IL-1” value in assay [5] is “+++”.
For the compound `C=C1C[C@H]2[C@@H]3CCC4=CC(=O)CC[C@@H]4[C@H]3CC[C@]2(C)[C@@]1(OC(C)=O)C(C)=O` [Nestorone], the EC50 is roughly 100 nM in assay [1] (setting [10]), 200 nM in assay [1] (setting [9]), roughly 100 nM in assay [2] and roughly 100 nM in assay [3]. In addition, the activity at 10 µM in assay [1] (setting [6]) came to 153%; in assay [1] (setting [7]) it was 189%. In addition, the “% Activity” value in assay [1] (setting [8]) is listed as 115%; in assay [1] (setting [9]), 133%; in assay [2], 130%; in assay [3], 181%. For the same compound, the “DMD myotube size and differentiation” value in assay [3] was “significant increase”. Moreover, in assay [4], the “atrophy rescue, TNF-alpha” value is listed as “+”. Also, in assay [4], the “atrophy rescue, Myostatin” value is “++”. The “atrophy rescue, IL-1” value in assay [5] is listed as “++”.
As for `CC#C[C@]1(O)CC[C@H]2[C@@H]3CCC4=CC(=O)CCC4=C3[C@@H](c3ccc(N(C)C)cc3)C[C@@]21C` [Mifepristone], the concentration for a half-maximal effect (EC50) in assay [1] (setting [10]) was roughly 50 nM; in assay [1] (setting [9]), 100 nM; in assay [2], roughly 5 nM. Also, the activity at 10 µM in assay [1] (setting [6]) was found to be 140%; in assay [1] (setting [7]), 173%. Also, the figures for the “% Activity” value in assay [1] (setting [8]), in assay [1] (setting [9]) and in assay [2] were 133%, 135% and 145%, respectively. Moreover, the activity in assay [3] was determined as 156%. The “atrophy rescue, TNF-alpha” value in assay [4] is “++”. Also, the “atrophy rescue, Myostatin” value in assay [4] is given as “+++”. Besides, the “atrophy rescue, IL-1” value in assay [5] is “+++”.
In the case of `C=C1C[C@H]2[C@@H]3C=C(C)C4=CC(=O)CC[C@]4(C)[C@H]3CC[C@]2(C)[C@@]1(OC(C)=O)C(C)=O` [Melengestrol acetate], the activity at 10 µM in assay [1] (setting [6]) and in assay [1] (setting [7]) was 140% in each case.
As to `C[C@]12C[C@H](O)[C@H]3[C@@H](CCC4=CC(=O)CC[C@@]43C)[C@@H]1CC[C@@H]2C(=O)CO` [Corticosterone], the concentration giving a half-maximal response (EC50) in assay [1] (setting [10]) was roughly 100 nM; in assay [1] (setting [9]), 200 nM; in assay [2], roughly 1000 nM; in assay [3], roughly 500 nM. The activity at 10 µM in assay [1] (setting [6]) was determined as 148%; in assay [1] (setting [7]), 128%. Moreover, the “% Activity” value in assay [1] (setting [8]) is recorded as 114%; in assay [1] (setting [9]) it was 120%; in assay [2], 134%; in assay [3], 145%. The “DMD myotube size and differentiation” value in assay [3] is “significant increase”. Moreover, the “atrophy rescue, TNF-alpha” value in assay [4] is “++”. Further, in assay [4], the “atrophy rescue, Myostatin” value is given as “+++”. In addition, the “atrophy rescue, IL-1” value in assay [5] is “++”.

Source of the values: patent US20200054649A1, “SKELETAL MUSCLE HYPERTROPHY INDUCERS” (CYTOO, priority 2016, published 2020).
